In PubChem BioAssay AID1745844 (Carcinogenic Potency Database (CPDB), 2022):
The source made the active and inactive calls. No rule for the calls is given here.

Tested on: rodent lifetime carcinogenesis bioassay, tumor incidence TD50
Experiment: carcinogenic potency in animals, long-term in vivo studies, CPDB compilation (AID 1745844)
[1] = mouse, strain B6AKF1, females, oral dosing, site: any site (literature study), lesion: several types, types named in the paper, dosed 76 weeks, study length 76 weeks
[2] = mouse, strain B6AKF1, females, oral dosing, site: liver, lesion: hepatoma, dosed 76 weeks, study length 76 weeks
[3] = mouse, strain B6AKF1, females, oral dosing, site: lung, lesion: adenoma, dosed 76 weeks, study length 76 weeks
[4] = mouse, strain B6AKF1, males, oral dosing, site: any site (literature study), lesion: several types, types named in the paper, dosed 76 weeks, study length 76 weeks
[5] = mouse, strain B6AKF1, males, oral dosing, site: liver, lesion: hepatoma, dosed 76 weeks, study length 76 weeks
[6] = mouse, strain B6AKF1, males, oral dosing, site: lung, lesion: adenoma, dosed 76 weeks, study length 76 weeks
[7] = mouse, strain B6C3F1, females, oral dosing, site: any site (literature study), lesion: several types, types named in the paper, dosed 76 weeks, study length 76 weeks
[8] = mouse, strain B6C3F1, females, oral dosing, site: liver, lesion: hepatoma, dosed 76 weeks, study length 76 weeks
[9] = mouse, strain B6C3F1, females, oral dosing, site: lung, lesion: several types, types named in the paper, dosed 76 weeks, study length 76 weeks
[10] = mouse, strain B6C3F1, males, oral dosing, site: any site (literature study), lesion: several types, types named in the paper, dosed 76 weeks, study length 76 weeks
[11] = mouse, strain B6C3F1, males, oral dosing, site: liver, lesion: hepatoma, dosed 76 weeks, study length 76 weeks
[12] = mouse, strain B6C3F1, males, oral dosing, site: lung, lesion: adenoma, dosed 76 weeks, study length 76 weeks

## [S-]c1nc2ccccc2s1.[S-]c1nc2ccccc2s1.[Zn+2]
[1]
  carcinogen call: negative (inactive)
[2]
  carcinogen call: negative (inactive)
[3]
  carcinogen call: negative (inactive)
[4]
  carcinogen call: negative (inactive)
[5]
  carcinogen call: negative (inactive)
[6]
  carcinogen call: negative (inactive)
[7]
  TD50: 2790 mg/kg/day (inactive)
[8]
  carcinogen call: negative (inactive)
[9]
  carcinogen call: negative (inactive)
[10]
  TD50: 319 mg/kg/day (inactive)
[11]
  TD50: 388 mg/kg/day (inactive)
[12]
  TD50: 2750 mg/kg/day (inactive)

## NC(=O)C(=Cc1ccc([N+](=O)[O-])o1)c1ccco1
hamster, strain Syrian Golden, females, in feed, site: esophagus, lesion: papilloma, dosed 94 weeks, study length 94 weeks
  TD50: 2340 mg/kg/day
hamster, strain Syrian Golden, females, in feed, site: forestomach, lesion: several types, types named in the paper, dosed 94 weeks, study length 94 weeks
  TD50: 59.1 mg/kg/day
hamster, strain Syrian Golden, females, in feed, site: forestomach, lesion: squamous-cell carcinoma, dosed 94 weeks, study length 94 weeks
  TD50: 2340 mg/kg/day
hamster, strain Syrian Golden, males, in feed, site: esophagus, lesion: several types, types named in the paper, dosed 94 weeks, study length 94 weeks
  TD50: 328 mg/kg/day
hamster, strain Syrian Golden, males, in feed, site: esophagus, lesion: squamous-cell carcinoma, dosed 94 weeks, study length 94 weeks
  TD50: 2180 mg/kg/day
hamster, strain Syrian Golden, males, in feed, site: forestomach, lesion: several types, types named in the paper, dosed 94 weeks, study length 94 weeks
  TD50: 30.5 mg/kg/day
hamster, strain Syrian Golden, males, in feed, site: forestomach, lesion: squamous-cell carcinoma, dosed 94 weeks, study length 94 weeks
  TD50: 164 mg/kg/day
mouse, strain CDF1, females, in feed, site: forestomach, lesion: papilloma, dosed 78 weeks, study length 104 weeks
  TD50: 714 mg/kg/day
mouse, strain CDF1, females, in feed, site: forestomach, lesion: squamous-cell carcinoma, dosed 78 weeks, study length 104 weeks
  TD50: 2540 mg/kg/day
mouse, strain CDF1, females, in feed, site: lung, lesion: one or several types, types not named, dosed 78 weeks, study length 104 weeks
  TD50: 16400 mg/kg/day
mouse, strain CDF1, males, in feed, site: forestomach, lesion: papilloma, dosed 78 weeks, study length 104 weeks
  TD50: 753 mg/kg/day
mouse, strain CDF1, males, in feed, site: forestomach, lesion: squamous-cell carcinoma, dosed 78 weeks, study length 104 weeks
  TD50: 928 mg/kg/day
mouse, strain CDF1, males, in feed, site: lung, lesion: one or several types, types not named, dosed 78 weeks, study length 104 weeks
  TD50: 9270 mg/kg/day
mouse, strain DDY, males, in feed, site: any site (literature study), lesion: several types, types named in the paper, dosed 44 weeks, study length 80 weeks
  TD50: 60.8 mg/kg/day
mouse, strain DDY, males, in feed, site: forestomach, lesion: several types, types named in the paper, dosed 44 weeks, study length 80 weeks
  TD50: 60.8 mg/kg/day
mouse, strain DDY, males, in feed, site: forestomach, lesion: squamous-cell carcinoma, dosed 44 weeks, study length 80 weeks
  TD50: 72.9 mg/kg/day
mouse, strain DDY, males, in feed, site: lung, lesion: adenoma, dosed 44 weeks, study length 80 weeks
  TD50: 299 mg/kg/day
mouse, strain ICR/Jcl, females, in feed, site: all sites, lesion: leukemia, dosed 62 weeks, study length 62 weeks
  TD50: 1800 mg/kg/day
mouse, strain ICR/Jcl, females, in feed, site: forestomach, lesion: several types, types named in the paper, dosed 62 weeks, study length 62 weeks
  TD50: 95 mg/kg/day
mouse, strain ICR/Jcl, females, in feed, site: forestomach, lesion: squamous-cell carcinoma, dosed 62 weeks, study length 62 weeks
  TD50: 225 mg/kg/day
mouse, strain ICR/Jcl, females, in feed, site: liver, lesion: hepatocellular tumor, dosed 104 weeks, study length 104 weeks
  TD50: 7070 mg/kg/day (inactive)
mouse, strain ICR/Jcl, males, in feed, site: forestomach, lesion: several types, types named in the paper, dosed 62 weeks, study length 62 weeks
  TD50: 90.3 mg/kg/day
mouse, strain ICR/Jcl, males, in feed, site: forestomach, lesion: squamous-cell carcinoma, dosed 62 weeks, study length 62 weeks
  TD50: 208 mg/kg/day
mouse, strain ICR/Jcl, males, in feed, site: liver, lesion: hepatocellular tumor, dosed 104 weeks, study length 104 weeks
  carcinogen call: negative (inactive)
rat, strain Sprague-Dawley, females, in feed, site: mammary gland, lesion: adenocarcinoma, dosed 46 weeks, study length 66 weeks
  TD50: 26.4 mg/kg/day
rat, strain Sprague-Dawley, females, in feed, site: mammary gland, lesion: several types, types named in the paper, dosed 46 weeks, study length 66 weeks
  TD50: 11.4 mg/kg/day
rat, strain Wistar, females, in feed, site: forestomach, lesion: papilloma, dosed 78 weeks, study length 104 weeks
  TD50: 424 mg/kg/day
rat, strain Wistar, females, in feed, site: liver, lesion: hemangioendothelial sarcoma, dosed 78 weeks, study length 104 weeks
  TD50: 2000 mg/kg/day
rat, strain Wistar, females, in feed, site: mammary gland, lesion: several types, types named in the paper, dosed 78 weeks, study length 104 weeks
  TD50: 74.7 mg/kg/day
rat, strain Wistar, males, in feed, site: forestomach, lesion: papilloma, dosed 78 weeks, study length 104 weeks
  TD50: 409 mg/kg/day
rat, strain Wistar, males, in feed, site: liver, lesion: hemangioendothelial sarcoma, dosed 78 weeks, study length 104 weeks
  TD50: 1600 mg/kg/day
rat, strain Wistar, males, in feed, site: mammary gland, lesion: several types, types named in the paper, dosed 78 weeks, study length 104 weeks
  TD50: 1200 mg/kg/day

## CCCCCNN
mouse, strain Swiss albino, females, in drinking water, site: blood vessels, lesion: angioma, dosed 94 weeks, study length 94 weeks
  TD50: 71.9 mg/kg/day
mouse, strain Swiss albino, females, in drinking water, site: blood vessels, lesion: angiosarcoma, dosed 94 weeks, study length 94 weeks
  TD50: 82.2 mg/kg/day
mouse, strain Swiss albino, females, in drinking water, site: blood vessels, lesion: several types, types named in the paper, dosed 94 weeks, study length 94 weeks
  TD50: 35.5 mg/kg/day
mouse, strain Swiss albino, females, in drinking water, site: liver, lesion: several types, types named in the paper, dosed 94 weeks, study length 94 weeks
  TD50: 223 mg/kg/day
mouse, strain Swiss albino, females, in drinking water, site: lung, lesion: adenocarcinoma, dosed 94 weeks, study length 94 weeks
  TD50: 18.7 mg/kg/day
mouse, strain Swiss albino, females, in drinking water, site: lung, lesion: adenoma, dosed 94 weeks, study length 94 weeks
  TD50: 7.95 mg/kg/day
mouse, strain Swiss albino, females, in drinking water, site: lung, lesion: several types, types named in the paper, dosed 94 weeks, study length 94 weeks
  TD50: 5.87 mg/kg/day
mouse, strain Swiss albino, males, in drinking water, site: blood vessels, lesion: several types, types named in the paper, dosed 94 weeks, study length 94 weeks
  TD50: 65.6 mg/kg/day
mouse, strain Swiss albino, males, in drinking water, site: liver, lesion: several types, types named in the paper, dosed 94 weeks, study length 94 weeks
  TD50: 271 mg/kg/day
mouse, strain Swiss albino, males, in drinking water, site: lung, lesion: adenoma, dosed 94 weeks, study length 94 weeks
  TD50: 30 mg/kg/day
mouse, strain Swiss albino, males, in drinking water, site: lung, lesion: several types, types named in the paper, dosed 94 weeks, study length 94 weeks
  TD50: 46.9 mg/kg/day

## CCC(C)=NO
mouse, strain Charles River CD1, females, inhaled, site: liver, lesion: hepatocellular adenoma, dosed 78 weeks, study length 78 weeks
  TD50: 2440 mg/kg/day
mouse, strain Charles River CD1, females, inhaled, site: lung, lesion: adenoma, dosed 78 weeks, study length 78 weeks
  TD50: 5880 mg/kg/day
mouse, strain Charles River CD1, males, inhaled, site: liver, lesion: hepatocellular adenoma, dosed 78 weeks, study length 78 weeks
  TD50: 1460 mg/kg/day
mouse, strain Charles River CD1, males, inhaled, site: liver, lesion: hepatocellular carcinoma, dosed 78 weeks, study length 78 weeks
  TD50: 810 mg/kg/day
mouse, strain Charles River CD1, males, inhaled, site: liver, lesion: several types, types named in the paper, dosed 78 weeks, study length 78 weeks
  TD50: 534 mg/kg/day
mouse, strain Charles River CD1, males, inhaled, site: lung, lesion: adenoma, dosed 78 weeks, study length 78 weeks
  TD50: 1100 mg/kg/day
rat, strain Fischer 344, females, inhaled, site: liver, lesion: hepatocellular adenoma, dosed 113 weeks, study length 113 weeks
  TD50: 804 mg/kg/day
rat, strain Fischer 344, males, inhaled, site: liver, lesion: hepatocellular adenoma, dosed 113 weeks, study length 113 weeks
  TD50: 118 mg/kg/day
rat, strain Fischer 344, males, inhaled, site: liver, lesion: hepatocellular carcinoma, dosed 113 weeks, study length 113 weeks
  TD50: 242 mg/kg/day
rat, strain Fischer 344, males, inhaled, site: liver, lesion: several types, types named in the paper, dosed 113 weeks, study length 113 weeks
  TD50: 74.5 mg/kg/day
rat, strain Fischer 344, males, inhaled, site: mammary gland, lesion: fibroadenoma, dosed 113 weeks, study length 113 weeks
  TD50: 346 mg/kg/day
rat, strain Fischer 344, males, inhaled, site: skin, lesion: fibroma, dosed 113 weeks, study length 113 weeks
  TD50: 84.8 mg/kg/day

## Oc1ccc(OCc2ccccc2)cc1
[1]
  carcinogen call: negative (inactive)
[2]
  carcinogen call: negative (inactive)
[3]
  carcinogen call: negative (inactive)
[4]
  carcinogen call: negative (inactive)
[5]
  carcinogen call: negative (inactive)
[6]
  carcinogen call: negative (inactive)
[7]
  TD50: 1230 mg/kg/day (inactive)
[8]
  carcinogen call: negative (inactive)
[9]
  carcinogen call: negative (inactive)
[10]
  TD50: 141 mg/kg/day (inactive)
[11]
  TD50: 382 mg/kg/day (inactive)
[12]
  TD50: 382 mg/kg/day (inactive)

## Cc1ccc(OP(=O)(Oc2ccc(C)cc2)Oc2ccc(C)cc2)cc1
mouse, strain B6C3F1, females, in feed, site: any site (literature study), lesion: several types, types named in the paper, dosed 104 weeks, study length 105 weeks
  carcinogen call: negative (inactive)
mouse, strain B6C3F1, females, in feed, site: lung, lesion: alveolar/bronchiolar adenoma + alveolar/bronchiolar carcinoma, dosed 104 weeks, study length 105 weeks
  TD50: 2310 mg/kg/day
mouse, strain B6C3F1, males, in feed, site: Harderian gland, lesion: adenoma, dosed 104 weeks, study length 105 weeks
  TD50: 184 mg/kg/day (inactive)
mouse, strain B6C3F1, males, in feed, site: any site (literature study), lesion: several types, types named in the paper, dosed 104 weeks, study length 105 weeks
  TD50: 159 mg/kg/day
mouse, strain B6C3F1, males, in feed, site: liver, lesion: hepatocellular adenoma + hepatoblastoma + hepatocellular carcinoma, dosed 104 weeks, study length 105 weeks
  TD50: 968 mg/kg/day
mouse, strain B6C3F1, males, in feed, site: lung, lesion: alveolar/bronchiolar adenoma + alveolar/bronchiolar carcinoma, dosed 104 weeks, study length 105 weeks
  TD50: 187 mg/kg/day
rat, strain Fischer 344, females, in feed, site: all sites, lesion: mononuclear-cell leukemia, dosed 104 weeks, study length 104 weeks
  TD50: 35 mg/kg/day (inactive)
rat, strain Fischer 344, females, in feed, site: any site (literature study), lesion: several types, types named in the paper, dosed 104 weeks, study length 104 weeks
  TD50: 21.6 mg/kg/day
rat, strain Fischer 344, males, in feed, site: any site (literature study), lesion: several types, types named in the paper, dosed 104 weeks, study length 104 weeks
  carcinogen call: negative (inactive)
rat, strain Fischer 344, males, in feed, site: liver, lesion: hepatocellular adenoma + hepatoblastoma + hepatocellular carcinoma, dosed 104 weeks, study length 104 weeks
  TD50: 143 mg/kg/day
